Laboratory results published in patent US10501425B2, “Microbiocidal oxadiazole derivatives” (SYNGENTA PARTICIPATIONS AG, priority 2015, dated 2019).

Columns and labels:
[1] = tested on: Puccinia recondita f. Sp. Tritici; test: Puccinia recondita f. sp. tritici / wheat / leaf disc preventative (brown rust); type: in vivo; details: foliar, 200 ppm in the applied formulation, wheat leaf segments cv. Kanzler, preventative (inoculated 1 day after application), compared to untreated, read-out: disease control
How it was run: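 Preventative leaf-segment test: compound at 200 ppm applied by spray to Kanzler wheat, with spore inoculation following after one day. Disease control relative to untreated check read 7 to 9 days post-application, incubation at 19° C., 75% relative humidity, 12 h light/12 h dark.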

Phakopsora pachyrhizi = Phakopsora pachyrhizi / soybean / leaf disc preventative (Asian soybean rust); type: in vivo; details: foliar, 200 ppm in the applied formulation, soybean leaf disks, compared to untreated, read-out: disease control
Description: Leaf disks or leaf segments of various plant species are cut from plants grown in a greenhouse. The cut leaf disks or segments are placed in multiwell plates (24-well format) onto water agar. The leaf disks are sprayed with a test solution before (preventative) or after (curative) inoculation. Compounds to be tested are prepared as DMSO solutions (max. 10 mg/ml) which are diluted to the appropriate concentration with 0.025% Tween20 just before spraying. The inoculated leaf disks or segments are incubated under defined conditions (temperature, relative humidity, light, etc.) according to the respective test system. A single evaluation of disease level is carried out 3 to 14 days after inoculation, depending on the pathosystem. Percent disease control relative to the untreated check leaf disks or segments is then calculated.
Soybean leaf disks are placed on water agar in multiwell plates (24-well format) and sprayed with the formulated test compound diluted in water. One day after application leaf discs are inoculated by spraying a spore suspension on the lower leaf surface. After an incubation period in a climate cabinet of 24-36 hours in darkness at 20° C. and 75% rh leaf disc are kept at 20° C. with 12 h light/day and 75% rh. The activity of a compound is assessed as percent disease control compared to untreated when an appropriate level of disease damage appears in untreated check leaf disks (12 to 14 days after application).
The following compounds at 200 ppm in the applied formulation give at least 80% disease control in this test when compared to untreated control leaf disks under the same conditions, which show extensive disease development.

[2] = tested on: Glomerella lacenarium (Colletotrichum lagenarium); test: Glomerella lagenarium liquid culture / cucumber / preventative (anthracnose); type: cell-based; details: Colletotrichum orbiculare; 20 ppm in the applied formulation; liquid culture (PDB), growth inhibition measured photometrically 3 to 4 days after application; compared to untreated; read-out: disease control
How it was run: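 Conidia from cryogenic storage were mixed into potato dextrose broth. This was added to compound diluted from DMSO into 0.025% Tween20, tested at 20 ppm. Plates were incubated in the dark at 24 °C and 96% relative humidity, and growth was read photometrically after 2–7 days as % activity versus untreated check.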

[3] = tested on: Puccinia recondita f. Sp. Tritici; test: Puccinia recondita f. sp. tritici / wheat / leaf disc curative (brown rust); type: in vivo; details: foliar, 24 h, 200 ppm in the applied formulation, wheat leaf segments cv. Kanzler, curative (applied 1 day after inoculation), compared to untreated, read-out: disease control
How it was run: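 Read-out is percent disease control relative to untreated segments, assessed 6 to 8 days after treatment once check disease is adequate. Kanzler wheat leaf segments on agar receive fungal spores, then test compound (DMSO stock diluted in 0.025% Tween20 or water) 1 day later, under 19° C and 75% relative humidity.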

CC=CCC(=O)NCc1ccc(-c2noc(C(F)(F)F)n2)cc1 [Compound 1.14, N-[[4-[5-(trifluoromethyl)-1,2,4-oxadiazol-3-yl]phenyl]methyl]pent-3-enamide]
≥ 80%: pest or weed control at 200 ppm [1] | pest or weed control at 200 ppm (Phakopsora pachyrhizi) | inhibition of growth at 20 ppm [2] | pest or weed control at 200 ppm [3]

CC(C)(C)CC(=O)NCc1ccc(-c2noc(C(F)(F)F)n2)cc1 [Compound 1.15, 3,3-dimethyl-N-[[4-[5-(trifluoromethyl)-1,2,4-oxadiazol-3-yl]phenyl]methyl]butanamide]
≥ 80%: pest or weed control at 200 ppm [1] | pest or weed control at 200 ppm (Phakopsora pachyrhizi) | inhibition of growth at 20 ppm [2] | pest or weed control at 200 ppm [3]

CCC(C)C(=O)NCc1ccc(-c2noc(C(F)(F)F)n2)cc1 (stereo not shown) [Compound 1.17, 2-methyl-N-[[4-[5-(trifluoromethyl)-1,2,4-oxadiazol-3-yl]phenyl]methyl]butanamide]
≥ 80%: pest or weed control at 200 ppm [1] | pest or weed control at 200 ppm (Phakopsora pachyrhizi) | inhibition of growth at 20 ppm [2] | pest or weed control at 200 ppm [3]

CCC(C)(CC)C(=O)NCc1ccc(-c2noc(C(F)(F)F)n2)cc1 [Compound 1.20, 2-ethyl-2-methyl-N-[[4-[5-(trifluoromethyl)-1,2,4-oxadiazol-3-yl]phenyl]methyl]butanamide]
≥ 80%: pest or weed control at 200 ppm [1] | pest or weed control at 200 ppm (Phakopsora pachyrhizi) | inhibition of growth at 20 ppm [2] | pest or weed control at 200 ppm [3]

COCCCC(=O)NCc1ccc(-c2noc(C(F)(F)F)n2)cc1 [Compound 1.21, 4-methoxy-N-[[4-[5-(trifluoromethyl)-1,2,4-oxadiazol-3-yl]phenyl]methyl]butanamide]
≥ 80%: pest or weed control at 200 ppm [1] | pest or weed control at 200 ppm (Phakopsora pachyrhizi) | inhibition of growth at 20 ppm [2] | pest or weed control at 200 ppm [3]

CC(C)C(=O)NCc1ccc(-c2noc(C(F)(F)F)n2)cc1F [Compound 1.35, N-[[2-fluoro-4-[5-(trifluoromethyl)-1,2,4-oxadiazol-3-yl]phenyl]methyl]-2-methyl-propanamide]
≥ 80%: pest or weed control at 200 ppm [1] | pest or weed control at 200 ppm (Phakopsora pachyrhizi) | inhibition of growth at 20 ppm [2] | pest or weed control at 200 ppm [3]

CCCC(=O)NCc1ccc(-c2noc(C(F)(F)F)n2)cc1F [Compound 1.36, N-[[2-fluoro-4-[5-(trifluoromethyl)-1,2,4-oxadiazol-3-yl]phenyl]methyl]butanamide]
≥ 80%: pest or weed control at 200 ppm [1] | pest or weed control at 200 ppm (Phakopsora pachyrhizi) | inhibition of growth at 20 ppm [2] | pest or weed control at 200 ppm [3]

COCC(=O)NCc1ccc(-c2noc(C(F)(F)F)n2)cc1F [Compound 1.38, N-[[2-fluoro-4-[5-(trifluoromethyl)-1,2,4-oxadiazol-3-yl]phenyl]methyl]-2-methoxy-acetamide]
≥ 80%: pest or weed control at 200 ppm [1] | pest or weed control at 200 ppm (Phakopsora pachyrhizi) | inhibition of growth at 20 ppm [2] | pest or weed control at 200 ppm [3]

CCC(C)C(=O)NCc1ccc(-c2noc(C(F)(F)F)n2)c(F)c1 (stereo not shown) [Compound 1.39, N-[[3-fluoro-4-[5-(trifluoromethyl)-1,2,4-oxadiazol-3-yl]phenyl]methyl]-2-methyl-butanamide]
≥ 80%: pest or weed control at 200 ppm [1] | pest or weed control at 200 ppm (Phakopsora pachyrhizi) | inhibition of growth at 20 ppm [2] | pest or weed control at 200 ppm [3]

CCC(C)C(=O)NCc1ccc(-c2noc(C(F)(F)F)n2)cc1F (stereo not shown) [Compound 1.41, N-[[2-fluoro-4-[5-(trifluoromethyl)-1,2,4-oxadiazol-3-yl)phenyl]methyl]-2-methyl-butanamide]
≥ 80%: pest or weed control at 200 ppm [1] | pest or weed control at 200 ppm (Phakopsora pachyrhizi) | inhibition of growth at 20 ppm [2] | pest or weed control at 200 ppm [3]

O=C(CC(F)(F)F)NCc1ccc(-c2noc(C(F)(F)F)n2)c(F)c1 [Compound 1.44, 3,3,3-trifluoro-N-[[3-fluoro-4-[5-(trifluoromethyl)-1,2,4-oxadiazol-3-yl]phenyl]methyl]propanamide]
≥ 80%: pest or weed control at 200 ppm [1] | pest or weed control at 200 ppm (Phakopsora pachyrhizi) | inhibition of growth at 20 ppm [2] | pest or weed control at 200 ppm [3]

O=C(CC(F)(F)F)NCc1ccc(-c2noc(C(F)(F)F)n2)cc1F [Compound 1.46, 3,3,3-trifluoro-N-[[2-fluoro-4-[5-(trifluoromethyl)-1,2,4-oxadiazol-3-yl]phenyl]methyl]propanamide]
≥ 80%: pest or weed control at 200 ppm [1] | pest or weed control at 200 ppm (Phakopsora pachyrhizi) | inhibition of growth at 20 ppm [2] | pest or weed control at 200 ppm [3]

CC(=O)NCc1ccc(-c2noc(C(F)(F)F)n2)c(F)c1 [Compound 1.47, N-[[3-fluoro-4-[5-(trifluoromethyl)-1,2,4-oxadiazol-3-yl]phenyl]methyl]acetamide]
≥ 80%: pest or weed control at 200 ppm [1] | pest or weed control at 200 ppm (Phakopsora pachyrhizi) | inhibition of growth at 20 ppm [2] | pest or weed control at 200 ppm [3]

CC(=O)NCc1ccc(-c2noc(C(F)(F)F)n2)cc1F [Compound 1.48, N-[[2-fluoro-4-[5-(trifluoromethyl)-1,2,4-oxadiazol-3-yl]phenyl]methyl]acetamide]
≥ 80%: pest or weed control at 200 ppm [1] | pest or weed control at 200 ppm (Phakopsora pachyrhizi) | inhibition of growth at 20 ppm [2] | pest or weed control at 200 ppm [3]

CC(C)C(=O)NCc1ccc(-c2noc(C(F)(F)F)n2)c(F)c1F [Compound 1.49, N-[[2,3-difluoro-4-[5-(trifluoromethyl)-1,2,4-oxadiazol-3-yl]phenyl]methyl]-2-methyl-propanamide]
≥ 80%: pest or weed control at 200 ppm [1] | pest or weed control at 200 ppm (Phakopsora pachyrhizi) | inhibition of growth at 20 ppm [2] | pest or weed control at 200 ppm [3]

CCCC(=O)NCc1ccc(-c2noc(C(F)(F)F)n2)c(F)c1F [Compound 1.51, N-[[2,3-difluoro-4-[5-(trifluoromethyl)-1,2,4-oxadiazol-3-yl]phenyl]methyl]butanamide]
≥ 80%: pest or weed control at 200 ppm [1] | pest or weed control at 200 ppm (Phakopsora pachyrhizi) | inhibition of growth at 20 ppm [2] | pest or weed control at 200 ppm [3]

COCC(=O)NCc1ccc(-c2noc(C(F)(F)F)n2)c(F)c1F [Compound 1.56, N-[[2,3-difluoro-4-[5-(trifluoromethyl)-1,2,4-oxadiazol-3-yl]phenyl]methyl]-2-methoxy-acetamide]
≥ 80%: pest or weed control at 200 ppm [1] | pest or weed control at 200 ppm (Phakopsora pachyrhizi) | inhibition of growth at 20 ppm [2] | pest or weed control at 200 ppm [3]

O=C(CC(F)(F)F)NCc1ccc(-c2noc(C(F)(F)F)n2)c(F)c1F [Compound 1.63, N-[[2,3-difluoro-4-[5-(trifluoromethyl)-1,2,4-oxadiazol-3-yl]phenyl]methyl]-3,3,3-trifluoro-propanamide]
≥ 80%: pest or weed control at 200 ppm [1] | pest or weed control at 200 ppm (Phakopsora pachyrhizi) | inhibition of growth at 20 ppm [2] | pest or weed control at 200 ppm [3]

CC(=O)NCc1ccc(-c2noc(C(F)(F)F)n2)c(F)c1F [Compound 1.65, N-[[2,3-difluoro-4-[5-(trifluoromethyl)-1,2,4-oxadiazol-3-yl]phenyl]methyl]acetamide]
≥ 80%: pest or weed control at 200 ppm [1] | pest or weed control at 200 ppm (Phakopsora pachyrhizi) | inhibition of growth at 20 ppm [2] | pest or weed control at 200 ppm [3]
